In patent US20250026733A1, “DEUTERATED ANALOGS OF PYROLE INHIBITORS OF ERK, SYNTHESIS THEREOF AND INTERMEDIATES THERETO” (BIOMED VALLEY DISCOVERIES, INC., priority 2022, published 2025):
Read-outs that look alike come from different tables or passages of the source.

Legend:
CYP1A2 mRNA expression = assay: In-vitro CYP induction study, CYP1A2 mRNA in cultured human hepatocytes; conditions: approximately 24 h
Protocol: (§3) A single preparation of characterized cryopreserved human hepatocytes isolated from non-transplantable human livers was treated in this study. Triplicate wells for each of the cultures were treated in 48-well plates with supplemented MCM (37±2° C.) containing 0.1% v/v DMSO (solvent control), one of three concentrations of each test article (1, 10 and 20 μM) or positive control CYP enzyme inducers omeprazole (50 μM), phenobarbital (1000 μM) or rifampin (20 μM). The cultures were incubated in a humidified culture chamber (37±2° C. at 95% relative humidity, 95/5% air/CO2). Approximately 24 h after treatment, hepatocytes were lysed in Buffer RLT reagent containing β-mercaptoethanol (100:1). The medium was aspirated, and Buffer RLT was added to each well. The cell lysates were prepared by repeated pipetting and shaking. Total RNA was isolated using the RNeasy Mini Kit. RNA quality and concentration were determined by measuring absorbance at 260 and 280 nm on a plate reader. Single-stranded cDNA was prepared from RNA with the RT Master Mix. The RT Master Mix comprises 10×RT buffer, 25× deoxyNTPs, 10× Random primers, RNase Inhibitor (20 U/μL), MultiScribe reverse transcriptase (50 U/μL) and RNase-free water. The RT Master Mix was added to each RNA sample to complete the components of the reaction. No template controls (NTCs) were included in the analysis. For the NTC reactions, RNase-free water was added in place of the RNA sample. The prepared cDNA samples were stored at −20±5° C. following analysis by qRT-PCR. Each PCR was performed in quadruplicate. A Primer Mix was prepared for each Gene Expression assay. A typical Primer Mix contained TaqMan Fast Advanced Master Mix (1×), Gene Expression Assay (1×, 900 nM forward and reverse primers) and RNase-free water. The Reaction Mix was prepared by adding the Primer Mix to cDNA. A percentage of samples (no less than 10%) included NAC (no amplification control) samples. […] Reactions were analyzed on a PCR sequence detection system. The relative quantity of the target cDNA compared with that of the control cDNA (GAPDH) was determined by the ΔΔCt method. Relative quantitation measures the change in mRNA expression in a test sample relative to that in a control sample (e.g., DMSO). This method assumes that the efficiency of the target amplification and the efficiency of the endogenous control amplification are approximately equal.

CYP3A4 mRNA expression [1] = assay: In-vitro CYP induction study, CYP3A4 mRNA in cultured human hepatocytes; conditions: 20 μM, approximately 24 h
Protocol: as §3

CYP2B6 = biological target: T1, CYP2B6 (Homo sapiens, UniProt P20813); assay: In-vitro CYP inhibition study, CYP2B6; type: in vitro ADME; conditions: human liver microsomes, substrate Bupropion (90 μM)
T1 construct: from tissue; host or cells: human liver microsomes, mixed-gender pool of 200
T1 sequence (P20813 1-491): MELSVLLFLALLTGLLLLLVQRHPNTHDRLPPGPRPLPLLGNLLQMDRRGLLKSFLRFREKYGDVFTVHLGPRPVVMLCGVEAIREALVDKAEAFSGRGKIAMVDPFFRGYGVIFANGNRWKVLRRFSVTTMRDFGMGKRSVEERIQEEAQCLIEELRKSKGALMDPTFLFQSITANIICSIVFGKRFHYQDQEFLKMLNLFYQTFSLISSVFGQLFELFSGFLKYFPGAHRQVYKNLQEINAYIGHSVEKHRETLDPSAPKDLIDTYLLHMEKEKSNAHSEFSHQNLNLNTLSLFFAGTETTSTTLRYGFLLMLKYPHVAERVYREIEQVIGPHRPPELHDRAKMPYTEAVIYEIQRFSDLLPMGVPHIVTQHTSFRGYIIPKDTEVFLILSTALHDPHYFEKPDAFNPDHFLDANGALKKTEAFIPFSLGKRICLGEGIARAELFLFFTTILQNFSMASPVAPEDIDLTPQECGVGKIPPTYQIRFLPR
Protocol: (§1) Incubations were conducted using a cocktail of seven prototypical CYP substrates to ascertain the potential of each test article to inhibit the metabolism of concomitantly administered drugs. A mixed-gender pool of 200 human liver microsomal samples was used for this study. Incubations were conducted at approximately 37° C. in 200 μL incubation mixtures (pH 7.4) containing water, potassium phosphate buffer (50 mM), MgCl2 (3 mM), EDTA (1 mM), an NADPH regenerating system (NADP [1 mM], glucose 6 phosphate [5 mM], glucose 6 phosphate dehydrogenase [1 Unit/mL]), and probe substrate (i.e., a seven substrate cocktail) at the final concentrations indicated in Table 9. Reactions were initiated by the addition of NADPH-regenerating system and were automatically terminated at approximately 5 minutes by the addition of internal standard mixed in stop reagent, acetonitrile. The samples were centrifuged at 920×g for 10 minutes at 10° C. The supernatant fractions were analyzed by LC-MS/MS. To examine its ability to act as a time-dependent inhibitor of CYP enzymes, each test article (at the same concentrations used to evaluate direct inhibition, (i.e. 0, 0.02, 0.06, 0.2, 0.6, 2, 6, 20 μM) was pre-incubated at 37±2° C. with NADPH-fortified human liver microsomes for approximately 30 minutes. The pre-incubations were initiated by the addition of NADPH-regenerating system. After 30 min, probe substrate incubations were initiated by the addition of probe substrate cocktail. Incubations were terminated and samples were analyzed by LC-MS/MS. When inhibition was observed, the data were processed with a LIMS for the determination of IC50 values by utilizing the Levenberg-Marquardt algorithm to perform non-linear regression fitting of the data to the following 4-parameter sigmoidal-logistic IC50 equation:
(§2) As percent of control values are utilized, the minimum value (Min) is set to zero and the maximum value (Max) is set to 100 (or other values, as appropriate). The LIMS calculates an IC50 value only when it lies within the concentration range of the inhibitor studied. Therefore, when an IC50 value falls outside the concentration range studied, the IC50 values are reported to be greater than the highest concentration of the test article evaluated.

CYP2B6 mRNA expression = assay: In-vitro CYP induction study, CYP2B6 mRNA in cultured human hepatocytes; conditions: 20 μM, approximately 24 h
Protocol: as §3

[2] = Half-life determination in human liver microsomes; type: in vitro ADME; conditions: for half-life at 1 μM: human, NADPH; for Half-life, % change relative to ulixertinib: mean
Protocol: Human microsomes from a pool of 10 donors was obtained from a commercial source. Microsomes prepared in potassium phosphate buffer were spiked with ulixertinib, Formula 18, Formula 19, and Formula 21 individually in replicates of six at a final concentration of 1 μM. NADPH was used to initiate the experiment; a control of minus NADPH (minus cofactor) was also run in parallel to the human liver microsome stability. After spiking with test article, microsome replicates were placed in a 37° C. incubator with the following time course: 0, 5, 10, 15, 20, 30, 45 and 60 minutes. Samples were extracted with a protein precipitation quench consisting of ice cold acetonitrile containing internal standard (tolbutamide). Samples were analyzed for ulixertinib, Formula 18, Formula 19, and Formula 21. The half-lives of ulixertinib, Formula 18, Formula 19, and Formula 21 were characterized by the […] to determine the elimination rate (ke) and using the formula described below.
[formula] • ke (elimination rate): the slope of ln(percent remaining) vs time (in minutes)

A375 cells = assay: A375 proliferation assay (Cell TiterGlo); type: cell-based; conditions: Homo sapiens, A-375, 72 hours
Protocol: Mechanism of Action (MOA) Cell Assay—A375 Cell Proliferation, pERK/ERK and pRSK/RSK Analysis:
Briefly, A375 cells were plated at 10,000 cells/well in three 96 well plates. Plates were incubated overnight at 37° C. and allowed to recover. Cells were washed with 150 μL of DPBS and 90 μL of fresh media was added to each well. The cells were then treated with a dose response of the selected compounds. Compounds were diluted from stock concentrations (10 mM in DMSO). Serial dilutions were made in DMSO, yielding 8 total different concentrations per compound. At time of compound addition, the control plate was analyzed using Cell TiterGlo to set baseline for proliferation. Compound treated cells were allowed to grow at 37° C./5% CO2 for 72 hours then analyzed using Cell TiterGlo according to kit protocol.

CYP2C9 = biological target: T2, CYP2C9 (Homo sapiens, UniProt P11712); assay: In-vitro CYP inhibition study, CYP2C9; type: in vitro ADME; conditions: human liver microsomes, substrate Diclofenac (12 μM)
T2 construct: from tissue; host or cells: human liver microsomes, mixed-gender pool of 200
Protocol: as §1, §2

CYP3A4 mRNA expression [3] = conditions: human, hepatocytes, 24 h
Protocol: as §3

[4] = Rep 1, read-out: Half-life, t½, Rep 1
[5] = Rep 2, read-out: Half-life, t½, Rep 2
[6] = Rep 3, read-out: Half-life, t½, Rep 3
[7] = Rep 4, read-out: Half-life, t½, Rep 4
[8] = Rep 5, read-out: Half-life, t½, Rep 5
[9] = Rep 6, read-out: Half-life, t½, Rep 6
[10] = six replicates, read-out: Half-life, t½, Mean ± SD

T2 sequence (P11712 whole entry): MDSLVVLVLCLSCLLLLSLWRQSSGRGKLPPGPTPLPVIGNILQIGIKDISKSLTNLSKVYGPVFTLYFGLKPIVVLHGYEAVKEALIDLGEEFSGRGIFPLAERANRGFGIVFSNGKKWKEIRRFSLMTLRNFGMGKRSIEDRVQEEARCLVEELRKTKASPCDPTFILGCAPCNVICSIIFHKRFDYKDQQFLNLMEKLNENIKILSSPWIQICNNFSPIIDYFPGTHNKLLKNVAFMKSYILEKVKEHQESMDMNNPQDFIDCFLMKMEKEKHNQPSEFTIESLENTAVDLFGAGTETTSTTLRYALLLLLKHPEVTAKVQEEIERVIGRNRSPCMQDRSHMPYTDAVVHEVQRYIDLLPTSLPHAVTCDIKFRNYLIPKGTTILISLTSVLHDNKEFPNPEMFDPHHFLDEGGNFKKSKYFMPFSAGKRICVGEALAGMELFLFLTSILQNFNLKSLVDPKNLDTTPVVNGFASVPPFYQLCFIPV

Row | SMILES | Fold Change in mRNA Expression of CYP3A4 (CYP3A4 mRNA expression [1]) | IC50 (CYP2B6; preincubation 0 min) | IC50 (CYP2B6; preincubation 30 min) | Fold Change in mRNA Expression of CYP2B6 (CYP2B6 mRNA expression) | half-life at 1 μM [2, 4] | half-life at 1 μM [2, 5] | half-life at 1 μM [2, 6] | half-life at 1 μM [2, 7] | half-life at 1 μM [2, 8] | half-life at 1 μM [2, 9] | half-life at 1 μM [2, 10] | Half-life, % change relative to ulixertinib [2] | IC50 (A375 cells) | IC50 (CYP2C9; preincubation 0 min) | IC50 (CYP2C9; preincubation 30 min) | Fold Change in mRNA Expression of CYP3A4 (CYP3A4 mRNA expression [3]; 1 μM) | Fold Change in mRNA Expression of CYP3A4 (CYP3A4 mRNA expression [3]; 10 μM) | Fold Change in mRNA Expression of CYP1A2 (CYP1A2 mRNA expression; 10 μM) | further results
1 | [2H]C([2H])([2H])C([2H])(Nc1cc(-c2c[nH]c(C(=O)N[C@H](CO)c3cccc(Cl)c3)c2)c(Cl)cn1)C([2H])([2H])[2H] [Formula 18, 4-(5-chloro-2-((propan-2-yl-d7)amino)pyridin-4-yl)-N-(1-(3-chlorophenyl)-2-hydroxyethyl)-1H-pyrrole-2-carboxamide] | 7.06 fold | 12 µM | 16 µM | 2.54 fold | 59.2 min | 58.7 min | 60.6 min | 55.8 min | 57.5 min | 62 min | 59 ± 2.2 min | (+21%) | 0.3 µM | 3.5 µM | 3.9 µM | 1.83 fold | 5.39 fold | – | Fold Change in mRNA Expression of CYP1A2 (CYP1A2 mRNA expression; 20 μM): 7.56 fold; longer half-life than ulixertinib ([2]; Table 5): 21%
2 | [2H]C([2H])([2H])C(Nc1cc(-c2c[nH]c(C(=O)N[C@H](CO)c3cccc(Cl)c3)c2)c(Cl)cn1)C([2H])([2H])[2H] [Formula 19, 4-(5-chloro-2-((propan-2-yl-1,1,1,3,3,3-d6)amino)pyridin-4-yl)-N-(1-(3-chiorophenyl)-2-hydroxyethyl)-1H-pyrrole-2-carboxamide] | 11.7 fold | 14 µM | 16 µM | 2.44 fold | 43.4 min | 45.2 min | 46.1 min | 44.9 min | 47.8 min | 44.9 min | 45.4 ± 1.5 min | (−7%) | – | 3.1 µM | 4.3 µM | 2.06 fold | 9.42 fold | 12.1 fold | shorter half-life compared to ulixertinib ([2]; Table 5): 7%
3 | Cl.[2H]C(C)(C)Nc1cc(-c2c[nH]c(C(=O)N[C@H](CO)c3cccc(Cl)c3)c2)c(Cl)cn1 [Formula 21A] | 6.86 fold | 17 µM | 19 µM | 2.22 fold | – | – | – | – | – | – | – | – | – | 3.4 µM | 4.4 µM | 1.39 fold | 5.29 fold | 8.51 fold | Fold Change in mRNA Expression of CYP1A2 (CYP1A2 mRNA expression; 1 μM): 2.22 fold
4 | CC(C)Nc1cc(-c2c[nH]c(C(=O)N[C@H](CO)c3cccc(Cl)c3)c2)c(Cl)cn1 [Ulixertinib, reference compound] | 8.26 fold | 11 µM | 16 µM | 2.43 fold | 49.2 min | 51.2 min | 50.3 min | 46.2 min | 48.5 min | 48.1 min | 48.9 ± 1.8 min | – | 0.25 µM | 3.1 µM | 3.4 µM | 1.52 fold | 6.84 fold | 6.63 fold | –
